We go through one molecule from US20050080062A1, “Breast cancer treatment regimen” (priority 2003, published 2005).

The subject of this data set is primary breast cancer (hormone receptor positive or unknown). The class given is in vivo, postmenopausal women. The protocol:
The study was a phase III randomized double-blind placebo-controlled study of letrozole in postmenopausal women with primary breast cancer completing five years of adjuvant tamoxifen. Patients were allocated to receive either letrozole 2.5 mg or placebo once daily by mouth for five years. Stratification factors at randomization were tumor receptor status (positive, unknown), lymph node status at diagnosis (negative, positive or unknown) and prior adjuvant chemotherapy (yes, no). The primary objective was disease-free survival (DFS). Secondary endpoints included overall survival (OS)(all cause mortality), contralateral breast cancer occurrence, quality of life and long term clinical and laboratory safety with special attention paid to cardiovascular morbidity and mortality and bone fractures. Adverse events were assessed by the NCI Common Toxicity Criteria version 2.0. Quality of life was assessed using the SF-36 and Menopause-Specific Quality of Life questionnaires. Companion studies assessed lipid profiles and changes in bone density.
Premenopausal women who were <50 years at the start of treatment with tamoxifen but who became amenorrheic during the course of adjuvant chemotherapy or during their treatment with tamoxifen and who remained so throughout the ensuing years of tamoxifen treatment and women with LH/FSH levels within post-menopausal limits were also eligible. Other eligibility included: histologically confirmed invasive breast cancer; tumor receptor positive or unknown (ER and/or PgR positive defined as a tumour receptor content of ≧10 fmol/mg protein, or receptor positive by ERICA or PgRICA); tamoxifen discontinued <3 months prior to enrolment; ECOG performance status 0,1 or 2 and a life expectancy of >5 years. […] Ineligibility included: concurrent use of investigational drugs; prior or concurrent malignancy other than skin cancer or carcinoma in situ of the cervix.
Concomitant medications prohibiting enrolment included: systemic hormone replacement therapy or SERMS (selective estrogen receptor modulators). Intermittent use of vaginal estrogens was permitted.
All study participants were randomised. Study medication began within 5 working days of randomisation. Clinical evaluation, routine blood work, toxicity evaluation and mammography (annually only) occurred six monthly in year one and annually thereafter. Serious toxicities and deaths were reported within 24 hours. Treatment was discontinued for: serious intercurrent illness, unacceptable toxicity, disease recurrence and patient request. SF-36 and Menqol questionnaires were completed by a subset of patients at each visit. Fasting lipid samples and bone mineral density evaluations occurred in sub-sets of participants on the bone and lipid companion studies. Recurrence of disease was defined histologically, cytologically or by clinical and/or radiologic suspicion and dated by the first time of detection. Management of recurrent cancer was at the discretion of the treating physician. Patients developing any second malignancy other than non-melanoma skin cancer or carcinoma in-situ of the cervix had to discontinue study therapy.
Interim analyses and other decisions regarding early termination of the study were referred to an independent Data and Safety Monitoring Committee (DSMC) consisting of clinicians, patient representatives and statisticians who reviewed the study twice a year.
Disease free survival, defined as the time from randomization to the time of recurrence of the primary disease (in the breast, chest wall, nodal or metastatic sites) or development of contralateral breast cancer, was the primary endpoint of the study. The sample size calculation assumed a 4 year disease free survival of 88% for patients on the placebo arm and a hazard ratio of 1.28, which represents 2.5% improvement in 4 year disease free survival from 88% to 90.5%. […]

The mark [1] stands for this setting: among 207 events at first analysis.

The structures appear in SMILES notation.

Consider `N#Cc1ccc(C(c2ccc(C#N)cc2)n2cncn2)cc1` [letrozole], for which the “hazard ratio of patients on placebo versus those on letrozole for OS” value (95% confidence interval from 0.85 to 2.17, stratified two sided log-rank p 0.20) was found to be 1.36. Further, where the note is “95% confidence interval from 1.33 to 2.34, stratified two sided log-rank p 0.000077”, the “hazard ratio of placebo to letrozole for DFS” value is given as 1.76. The “effect on breast cancer recurrence and new primary tumors (in words)” value (after five years of treatment with tamoxifen) was “markedly reduced breast cancer recurrance and new primary tumors”. In addition, under setting [1], the “women who developed both contralateral breast cancer and metastatic disease” value is listed as 2 women; the “women who developed contralateral breast cancer only” value came out at 14 women; the “women with metastatic disease recurrence only” value is 59 women. Besides, where the note is “at the time of the first analysis”, the “patients coming off study because of progressive disease” value worked out at 44 patients. Besides, under “female, human, in vivo”, the “patients coming off study because of toxicity” value is recorded as 115 patients. In addition, the “toxicity profile (in words)” value (in vivo) is listed as “very favorable toxicity profile”. Besides, the “4 year disease free survival (DFS)” value (letrozole 2.5 mg once daily by mouth after five years of adjuvant tamoxifen, first interim analysis, 95% confidence interval from 90% to 95%) was 93%. Besides, the “4 year overall survival (OS)” value (letrozole 2.5 mg once daily, first interim analysis, 95% confidence interval from 94% to 98%) came to 96%. For the same molecule, the “patients who had died at the time of data cut-off” value (of 72 deaths in total, 2593 randomized to letrozole) was 30 patients.
